In assay [1] the target is T1, PI5P4Kα (Homo sapiens, UniProt P48426).
T1 sequence (P48426 1-406): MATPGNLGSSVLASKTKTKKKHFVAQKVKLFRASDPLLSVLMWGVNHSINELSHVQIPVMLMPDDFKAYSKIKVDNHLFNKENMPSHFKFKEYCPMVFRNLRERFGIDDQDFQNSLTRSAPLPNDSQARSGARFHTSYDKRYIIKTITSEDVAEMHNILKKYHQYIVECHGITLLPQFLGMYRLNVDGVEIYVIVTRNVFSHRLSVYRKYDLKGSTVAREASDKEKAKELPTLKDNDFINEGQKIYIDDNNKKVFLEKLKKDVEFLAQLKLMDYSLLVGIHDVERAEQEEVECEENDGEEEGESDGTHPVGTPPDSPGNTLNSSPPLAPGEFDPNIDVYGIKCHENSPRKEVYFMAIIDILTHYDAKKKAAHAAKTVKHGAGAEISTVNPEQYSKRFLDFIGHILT
The assay is described as follows: biochemical. Particulars: ADP-Glo pIC50 PI5P4Kα, Table S1, two decimals; asterisk not explained.

The target of assay [2] is T2, PI5P4Kγ+ (Homo sapiens, UniProt Q8TBX8, D138G/D197E/E133P/E135D/E153T/E196G/G139A/N195G/S132L/S134N).
T2 sequence (Q8TBX8 with tags, fused parts or gaps INS131LPN/S132D/E133S/S134Q/E135A/G136R/D138G/G139A/E153T/N195G/E196G/D197E): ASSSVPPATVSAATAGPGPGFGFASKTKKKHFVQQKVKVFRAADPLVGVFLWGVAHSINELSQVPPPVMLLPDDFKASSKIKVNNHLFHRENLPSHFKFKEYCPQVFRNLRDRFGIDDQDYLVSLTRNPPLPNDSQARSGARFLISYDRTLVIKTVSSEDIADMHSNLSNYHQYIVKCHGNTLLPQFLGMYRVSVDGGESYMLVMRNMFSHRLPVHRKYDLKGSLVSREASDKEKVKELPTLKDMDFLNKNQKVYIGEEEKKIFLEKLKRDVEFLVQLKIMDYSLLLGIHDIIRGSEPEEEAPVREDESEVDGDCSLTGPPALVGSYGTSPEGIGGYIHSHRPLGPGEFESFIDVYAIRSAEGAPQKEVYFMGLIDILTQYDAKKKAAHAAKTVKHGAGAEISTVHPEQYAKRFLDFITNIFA
The assay is described as follows: biochemical. The following applies: ADP-Glo pIC50 PI5P4Kγ+, Table S1, two decimals; asterisk not explained. A general note: ADP-Glo first removes unused ATP, then detects ADP through luciferase.

Molecules are shown by their SMILES.

In general, IC50 refers to the concentration that inhibits the measured activity by half. A high value points to a need for much substance.

For `CC(=O)NCc1cc2c(Nc3ccc(S(=O)(=O)C4CCCC4)cc3)ncnc2s1`, the values for the IC50 in assay [1] and in assay [2] were 4370 nM and 12.6 nM, respectively.

As for `CN(C)C(=O)c1cc2c(Nc3ccc(S(C)(=O)=O)cc3)ncnc2s1`, the IC50 is 6920 nM in assay [1] and 562 nM in assay [2].

As to `COc1cnccc1-c1cc2c(Nc3ccc(C4CC4)cc3)ncnc2[nH]1`, the IC50 in assay [1] is 240 nM; in assay [2], 85.1 nM.

As for `COc1cnccc1-c1cc2c(Nc3ccc(C)c(C)c3)ncnc2s1`, the values for the IC50 in assay [1] and in assay [2] were 275 nM and 631 nM, respectively.

`COc1cnccc1-c1cc2c(Nc3ccc(C4CC4)cc3)ncnc2s1`: the IC50 in assay [1] is 269 nM; in assay [2], 63.1 nM.

For `COc1ncccc1-c1cc2c(Nc3ccc(S(C)(=O)=O)cc3)ncnc2s1`, the half-maximal inhibitory concentration (IC50) is 2290 nM in assay [1] and 28.8 nM in assay [2].

In the case of `CS(=O)(=O)c1ccc(Nc2ncnc3sc(-c4ccc(F)cc4F)cc23)cc1`, the IC50 in assay [1] is 1100 nM; in assay [2], 85.1 nM.

As for `CS(=O)(=O)c1ccc(Nc2ncnc3sc(-c4ccc(F)cc4)cc23)cc1`, the IC50 is 9770 nM in assay [1] and 52.5 nM in assay [2].

Consider `CS(=O)(=O)c1ccc(Nc2ncnc3sc(-c4cnoc4)cc23)cc1`, for which the IC50 in assay [1] is 2190 nM; in assay [2], 36.3 nM.

With `CS(=O)(=O)c1ccc(Nc2ncnc3sc(C(F)F)cc23)cc1`, the concentration for half-maximal inhibition (IC50) in assay [1] is 8710 nM; in assay [2], 166 nM.

Regarding `Cc1cc2c(Nc3ccc(N4CC(C)(C)CC4=O)cc3)ncnc2s1`, the 50% inhibitory concentration (IC50) in assay [1] is 1170 nM; in assay [2] it was 132 nM.

For `Cc1cc2c(Nc3ccc(S(=O)(=O)C4CC4)cc3)ncnc2s1`, the figures for the IC50 in assay [1] and in assay [2] were 7760 nM and 75.9 nM, respectively.

As for `Cc1ccc(Nc2ncnc3sc(-c4cccnc4Cl)cc23)c(C)c1`, the concentration for half-maximal inhibition (IC50) in assay [1] is 2950 nM; in assay [2] it was 8320 nM.

Consider `Clc1ncccc1-c1cc2c(Nc3ccc(C4CC4)cc3)ncnc2s1`, for which the concentration for half-maximal inhibition (IC50) was 195 nM in assay [1] and 67.6 nM in assay [2].

For the molecule `O=C(NCc1cc2c(Nc3ccc(S(=O)(=O)C4CCCC4)cc3)ncnc2s1)c1ccc(C2(C(F)(F)F)N=N2)cc1`, the concentration for half-maximal inhibition (IC50) in assay [1] was 5250 nM; in assay [2] it was 39.8 nM.

As to `N#Cc1cc2c(Nc3ccc(S(=O)(=O)C4CCCC4)cc3)ncnc2s1`, the IC50 in assay [1] was 4680 nM; in assay [2], 49 nM.

As to `Cc1c(C(=O)O)sc2ncnc(Nc3ccc(C(C)C)cc3)c12` [CC(C)c1ccc(cc1)Nc1ncnc2sc(c(c12)C)C(=O)O], half-maximal inhibition in assay [1] (IC50) required 2750 nM.

Consider `CCc1cc2c(Nc3ccc(N4CCCC4=O)c(C)c3)ncnc2s1` [CCc1cc2c(ncnc2s1)Nc1ccc(c(c1)C)N1CCCC1=O], for which the IC50 in assay [1] is 9770 nM; in assay [2], 288 nM.

Turning to `CCc1ccc(Nc2ncnc3sc(-c4cccnc4Cl)cc23)cc1` [CCc1ccc(cc1)Nc1ncnc2sc(cc12)-c1cccnc1Cl], the figures for the 50% inhibitory concentration (IC50) in assay [1] and in assay [2] were 324 nM and 151 nM, respectively.

Regarding `CC(=O)N(C)c1ccc(Nc2ncnc3sc(C)cc23)cc1` [CN(C(=O)C)c1ccc(cc1)Nc1ncnc2sc(cc12)C], the IC50 in assay [1] was 1120 nM.

As for `COc1cc(Nc2ncnc3sc(C)cc23)ccc1N1CCCC1=O` [COc1cc(ccc1N1CCCC1=O)Nc1ncnc2sc(cc12)C], the half-inhibitory concentration (IC50) in assay [1] is 7240 nM; in assay [2], 214 nM.

Regarding `COc1cnccc1-c1cc2c(Nc3ccc(Cl)cc3)ncnc2s1` [COc1cnccc1-c1cc2c(ncnc2s1)Nc1ccc(cc1)Cl], the figures for the half-maximal inhibitory concentration (IC50) in assay [1] and in assay [2] were 1320 nM and 63.1 nM, respectively.

On to `COc1cnccc1-c1cc2c(Nc3ccc(SC)cc3)ncnc2s1` [COc1cnccc1-c1cc2c(ncnc2s1)Nc1ccc(cc1)SC], for which the half-maximal inhibitory concentration (IC50) in assay [1] was 129 nM; in assay [2] it was 15.1 nM.

As for `COc1cnccc1-c1cc2c(Nc3ccc(C)cc3C)ncnc2s1` [COc1cnccc1-c1cc2c(ncnc2s1)Nc1ccc(cc1C)C], the IC50 in assay [1] was 5010 nM; in assay [2] it was 7410 nM.

On to `Cc1cc2c(Nc3ccc(Br)cc3)ncnc2s1` [Cc1cc2c(ncnc2s1)Nc1ccc(cc1)Br], for which, in assay [1], 6920 nM corresponded to half-maximal inhibition (IC50). This lies in the single-digit micromolar range.

The values are drawn from publication PMC10583824, “The rational design of ARUK2007145, a dual inhibitor of the α and γ isoforms of the lipid kinase phosphatidylinositol 5-phosphate 4-kinase (PI5P4K)” (RSC Medicinal Chemistry, 2023).
